# Reference: patent US20080176266A1, “Biomarkers Of Metabolic Responses To Hepatotoxicants And Carcinogens” (priority 2006, published 2008)
# Marks after values point to notes of the source that are not given here.
# Legend:
# DNA = details: short term treatment; Gonzalez et al. (1998); cited from earlier work
# Sprague Dawley rats [1] = assay: Liver histology; type: in vivo; details: rat liver
# Description: […] Six rats per dose group were euthanized at 6 and 24 h post-dose. Serum (for metabolomics and alanine aminotransferase (ALT), and aspartate aminotransferase (AST)), liver lobes (for histology), and frozen liver and urine (for metabolomics) were collected. Six rats per dose group were placed in metabolism cages for urine collection at −24-0 h, 0-6 h, 6-24 h and 24-48 h. These rats were removed from metabolism cages at 48 h post-dose, for blood and liver collection. The detailed study design is set forth in Chart 1.
# Sprague Dawley rats [2] = assay: Liver-to-body weight ratio (LBR), F-tests; type: in vivo, rat; details: Day 14 animals, with time and with dose, not the interaction of dose-time
# Source text: Liver hypertrophy is a well-known clinical end-point of chronic clofibrate exposure, however, the biomarkers of this pathology are unknown. Using the measurements of the liver weight and the body weight of the animals, we calculated the liver-to-body weight ratio (LBR). […] Second, we discovered the components that could classify the LBR in the liver and in the serum. This was accomplished out using a step wise regression method with the LBR as the response variable and all of the components as independent variables. After an iterative selection procedure, 29 of the best components from the serum and the liver were used to build the reduced model given below: […]
# rats = details: cited from earlier work
# Sprague Dawley rats [3] = assay: Liver enzymes ALT and AST in serum; type: in vivo; details: rat serum, 0, 50, 250 mg/kg, any groups
# Description: In detail, a single dose of clofibrate or vehicle was administered by gavage (0, 50 and 250 mg/kg) to groups of 18 male Sprague Dawley rats at 11 wks age. Six rats per dose group were euthanized at 6 and 24 h post-dose. Serum (for metabolomics and alanine aminotransferase (ALT), and aspartate aminotransferase (AST)), liver lobes (for histology), and frozen liver and urine (for metabolomics) were collected. Six rats per dose group were placed in metabolism cages for urine collection at −24-0 h, 0-6 h, 6-24 h and 24-48 h. These rats were removed from metabolism cages at 48 h post-dose, for blood and liver collection. The detailed study design is set forth in Chart 1.
# Sprague Dawley rats [4] = assay: GC-MS metabolomics of liver from rats exposed to clofibrate; type: in vivo; details: rat liver, 250 mg/kg/d
# Description: In one embodiment, the hepatotoxicant is clofibrate. Clofibrate or vehicle is administered orally (0, 50, 250 mg/kg/d) to groups of 6 rats and serum and livers are collected 6 and 24 h after either a single or 14 daily doses. Global biochemical profiles are determined by LC-MS and GC-MS and components highly perturbed by clofibrate exposure are identified by the methods described above. […] Rats (6 per group) were dosed by gavage with vehicle, 50 or 250 mg/kg clofibrate per day for 1 (single dose) or 14 days (repeated dose). These groups are referred to as “day 1” and ‘day 14 (d 1 and d14).” Liver and serum were collected at 6 and 24 h post-dosing in the day 1 and day 14. In detail, a single dose of clofibrate or vehicle was administered by gavage (0, 50 and 250 mg/kg) to groups of 18 male Sprague Dawley rats at 11 wks age. Six rats per dose group were euthanized at 6 and 24 h post-dose. Serum (for metabolomics and alanine aminotransferase (ALT), and aspartate aminotransferase (AST)), liver lobes (for histology), and frozen liver and urine (for metabolomics) were collected. Six rats per dose group were placed in metabolism cages for urine collection at −24-0 h, 0-6 h, 6-24 h and 24-48 h. These rats were removed from metabolism cages at 48 h post-dose, for blood and liver collection. The detailed study design is set forth in Chart 1. For GC-MS, liver was extracted with CHCl3:MeOH mixtures. Organic residue was derivitized with BSTFA and dried aqueous residues were derivitized with methoxyamine HCl/BSTFA. Samples were injected with 10:1 split into an Agilent 6890 gas chromatograph. A Leco Pegasus III TOFMS was used. Ions were generated at 70 eV with 3.2 mA ionization current; 25 spectra/s were recorded for 60-800 m/z. Acceleration voltage activated after 180 s solvent delay. Detector voltage: 1750 V. Data were processed with Leco ChromaTOF software. Automatic peak detection and mass spectrum deconvolution were performed using 1.33 s peak width. Peaks with S/N less than 20 were rejected. Component identification was accomplished with the NIST 98' MS library and, in some cases, verified with standards. Components with similarity greater than 600 were used for analysis.
structure (smiles),measurement,setting,value
"CCOC(=O)C(C)(C)Oc1ccc(Cl)cc1 [clofibrate, ethyl-p-chloro-phenoxyisobutyrate]",DNA adducts,DNA,no DNA adducts have been observed
same,Histology: hepatocellular cytologic alterations,"Sprague Dawley rats [1]; after 14 doses at 250 mg/kg/day, all time points",hepatocellular cytologic alterations (indicating loss of glycogen and eosinophilic granular cytoplasm) were noted
same,Histology: hepatocellular mitotic figures,"Sprague Dawley rats [1]; after a single dose, 50 to 250 mg/kg",dose related increase and severity of hepatocellular mitotic figures
same,Liver-to-body weight ratio (LBR),Sprague Dawley rats [2],significantly increased
same,Microscopic changes to liver,rats; 24 h after a single exposure,no microscopic changes
same,Liver histopathology,rats; after 2 weeks,induced hypertrophy
same,ALT,Sprague Dawley rats [3],not elevated
same,AST,Sprague Dawley rats [3],not elevated
same,Hepatic 1-Mono linoleoylglycerol (fold change),"Sprague Dawley rats [4]; Day 1, 6 H",1.11*** fold change
same,Hepatic 1-Mono oleoylglycerol (fold change),"Sprague Dawley rats [4]; Day 1, 6 H",0.98* fold change
same,Hepatic 1-Mono palmitoylglycerol (fold change),"Sprague Dawley rats [4]; Day 1, 6 H",0.91** fold change
same,Hepatic 2-Mono oleoylglycerol (fold change),"Sprague Dawley rats [4]; Day 1, 6 H",1.12*** fold change
same,Hepatic Cholesterol (fold change),"Sprague Dawley rats [4]; Day 1, 6 H",1.34*** fold change
same,Hepatic Glucose (aq) (fold change),"Sprague Dawley rats [4]; Day 1, 6 H",0.29* fold change
same,Hepatic Glycine (fold change),"Sprague Dawley rats [4]; Day 1, 6 H",2.69** fold change
same,Hepatic Lactic acid (fold change),"Sprague Dawley rats [4]; Day 1, 6 H",1.56** fold change
same,Hepatic Linoleic acid (fold change),"Sprague Dawley rats [4]; Day 1, 6 H",0.97* fold change
same,Hepatic Palmitate (fold change),"Sprague Dawley rats [4]; Day 1, 6 H",0.95*** fold change
same,Hepatic Stearate (fold change),"Sprague Dawley rats [4]; Day 1, 6 H",1.07* fold change
same,Hepatic 1-Mono stearoylglycerol (fold change),"Sprague Dawley rats [4]; Day 1, 24 H",17.14** fold change
same,Hepatic Glycerol 1(3)-phosphate (fold change),"Sprague Dawley rats [4]; Day 1, 24 H",2.56* fold change
same,Hepatic Glycine (fold change),"Sprague Dawley rats [4]; Day 1, 24 H",3.42* fold change
same,Hepatic L-Aspartic acid (fold change),"Sprague Dawley rats [4]; Day 1, 24 H",27.88*** fold change
same,Hepatic Lactic acid (fold change),"Sprague Dawley rats [4]; Day 1, 24 H",4.41* fold change
same,Hepatic Succinic acid (Butanedioic acid) (fold change),"Sprague Dawley rats [4]; Day 1, 24 H",17.05** fold change
same,Hepatic l-Alanine (fold change),"Sprague Dawley rats [4]; Day 1, 24 H",4.74* fold change
same,Hepatic 1-Mono palmitoylglycerol (fold change),"Sprague Dawley rats [4]; Day 14, 6 H",0.04** fold change
same,Hepatic 1-Mono stearoylglycerol (fold change),"Sprague Dawley rats [4]; Day 14, 6 H",0.22** fold change
same,Hepatic 2-Mono stearoylglycerol (fold change),"Sprague Dawley rats [4]; Day 14, 6 H",0.41* fold change
same,Hepatic Arachidonic acid (fold change),"Sprague Dawley rats [4]; Day 14, 6 H",0.22*** fold change
same,Hepatic Cholesterol (fold change),"Sprague Dawley rats [4]; Day 14, 6 H",1.87** fold change
same,Hepatic Malate (fold change),"Sprague Dawley rats [4]; Day 14, 6 H",0.1** fold change
same,Hepatic Palmitate (fold change),"Sprague Dawley rats [4]; Day 14, 6 H",0.72** fold change
same,Hepatic β-Sitosterol (fold change),"Sprague Dawley rats [4]; Day 14, 6 H",0.37** fold change
same,Hepatic Cholesterol (fold change),"Sprague Dawley rats [4]; Day 14, 24 H",0.69** fold change
same,Hepatic Docosahexaenoic acid (fold change),"Sprague Dawley rats [4]; Day 14, 24 H",0.58* fold change
same,Hepatic Glucose (aq) (fold change),"Sprague Dawley rats [4]; Day 14, 24 H",0.39** fold change
same,Hepatic Malate (fold change),"Sprague Dawley rats [4]; Day 14, 24 H",0.33** fold change
same,Hepatic β-Sitosterol (fold change),"Sprague Dawley rats [4]; Day 14, 24 H",0.46* fold change
same,"Clofibrate metabolite Propanoic acid, 2-(4-chlorophenoxy)-2-methyl- detected in liver",Sprague Dawley rats [4]; GC-MS,(not present in control)
